Laboratory results: patent US9271960B2, “Tetrahydrocarbazoles as active agents for inhibiting VEGF production by translational control” (PTC Therapeutics, Inc., priority 2004, dated 2016)
Read-outs that look alike come from different tables or passages of the source.

Test system: VEGF
Test: Hypoxia-inducible endogenous VEGF expression ELISA in HeLa cells
Type: cell-based
Settings: Homo sapiens, HeLa, VEGF protein by ELISA
Outline: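 HeLa cells held 24–48 h in hypoxia (1% O2) with a concentration series of compound; VEGF secreted into media quantified by ELISA against a standard curve. Parallel Cell Titer Glo viability under identical conditions gives CC50; EC50 from percent-inhibition curves.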

[1] = purchased compounds 156-188, hypoxic conditions, read-out: ELISA Activity
[2] = purchased compounds 156-188, hypoxic conditions, read-out: ELISA EC50
[3] = compounds 1-155, hypoxic conditions (1% O2), read-out: ELISA Activity
[4] = compounds 191-239, hypoxic conditions, read-out: ELISA Activity EC50

SMILES	EC50 [3] [µM]	also measured
Cc1ccc2c(c1)c1c3n2CCCN(Cc2cccc(Cl)c2)C3CCC1 (centres unmarked) [Compound 180, 4-(3-Chloro-benzyl)-11-methyl-1,2,3,3a,4,5,6,7-octahydro-[1,4]diazepino[3,2,1-jk]carbazole]	–	EC50 [1]: > 1 µM; EC50 [2]: > 10 µM
Clc1ccccc1NC1CCCc2c1[nH]c1ccc(Br)cc21 (centres unmarked) [Compound 29, (6-Bromo-2,3,4,9-tetrahydro-1H-carbazol-1-yl)-(2-chloro-phenyl)-amine]	0.01 to 0.04	–
COc1ccc(C(=O)NC2CCCc3c2[nH]c2ccc(Br)cc32)cc1 (centres unmarked) [Compound 130, N-(6-Bromo-2,3,4,9-tetrahydro-1H-carbazol-1-yl)-4-methoxy-benzamide]	0.01 to 0.04	–
OC(COc1ccc(C2CCCCc3c2[nH]c2ccc(Br)cc32)cc1)Cn1cncn1 (centres unmarked) [Compound 226]	–	EC50 [4]: 0.04 to 0.2 µM
Clc1ccc(NC2CCCc3c2[nH]c2ccc(Br)cc32)cc1Cl (centres unmarked) [Compound 36, (6-Bromo-2,3,4,9-tetrahydro-1H-carbazol-1-yl)-(3,4-dichloro-phenyl)-amine]	0.04 to 0.2	–
OC(COc1ccc(C2CCCc3c2[nH]c2ccc(Br)cc32)cc1)CN1CCOCC1 (centres unmarked) [Compound 196]	–	EC50 [4]: < 0.01 µM
O=C(NC1CCCc2c1[nH]c1ccc(Br)cc21)c1cccs1 (centres unmarked) [Compound 128, Thiophene-2-carboxylic acid (6-bromo-2,3,4,9-tetrahydro-1H-carbazol-1-yl)-amide]	< 0.01	–
Brc1ccc2[nH]c3c(c2c1)CCCC3c1nc2ccccc2[nH]1 (centres unmarked) [Compound 142, 1-(1H-Benzoimidazol-2-yl)-6-bromo-2,3,4,9-tetrahydro-1H-carbazole]	0.01 to 0.04	–
CC(=O)Nc1ccc(NC2CCCc3c2[nH]c2ccc(Br)cc32)cc1 (centres unmarked) [Compound 57, N-[4-(6-Bromo-2,3,4,9-tetrahydro-1H-carbazol-1-ylamino)-phenyl]-acetamide]	0.2 to 1	–
Brc1ccc2[nH]c3c(c2c1)CCCC3NCc1ccco1 (centres unmarked) [Compound 68, (6-Bromo-2,3,4,9-tetrahydro-1H-carbazol-1-yl)-furan-2-ylmethyl-amine]	0.2 to 1	–
Cc1ccc2c(c1)c1c3n2CCN(C(=O)c2ccccc2Cl)C3CCC1 (centres unmarked) [Compound 171, (2-Chloro-phenyl)-(8-methyl-1,2,3a,4,5,6-hexahydro-pyrazino[3,2,1-jk]carbazol-3-yl)-methanone]	–	EC50 [1]: > 1 µM; EC50 [2]: > 10 µM
OC(COc1ccc(C2CCCCc3c2[nH]c2ccc(Cl)cc32)cc1)Cn1ccnn1 (centres unmarked) [Compound 232]	–	EC50 [4]: 0.01 to 0.04 µM
Brc1ccc2[nH]c3c(c2c1)CCCC3Nc1ccc2c(c1)OCO2 (centres unmarked) [Compound 18, Benzo[1,3]dioxol-5-yl-(6-bromo-2,3,4,9-tetrahydro-1H-carbazol-1-yl)-amine]	< 0.01	–
O=C1c2sccc2CN1C1CCCc2c1[nH]c1ccc(Br)cc21 (centres unmarked) [Compound 5, 5-(6-Bromo-2,3,4,9-tetrahydro-1H-carbazol-1-yl)-4,5-dihydro-thieno[2,3-c]pyrrol-6-one]	< 0.01	–

Continued, in another order:

EC50 [3] [µM]	SMILES	also measured
> 1	CCOC(=O)C1CCCc2c1[nH]c1ccc(Br)cc21 (centres unmarked) [Compound 90, 6-Bromo-2,3,4,9-tetrahydro-1H-carbazole-1-carboxylic acid ethyl ester]	–
> 1	Brc1ccc2c3c([nH]c2c1)C(n1cccc1)CCC3 (centres unmarked) [Compound 121, 7-Bromo-1-pyrrol-1-yl-2,3,4,9-tetrahydro-1H-carbazole]	–
< 0.01	Cc1ccc2[nH]c3c(c2c1)CCCC3Nc1ccccc1 (centres unmarked) [Compound 11, (6-Methyl-2,3,4,9-tetrahydro-1H-carbazol-1-yl)-phenyl-amine]	–
0.04 to 0.2	Clc1ccc2[nH]c3c(c2c1)CCCC3n1cccc1 (centres unmarked) [Compound 37, 6-Chloro-1-pyrrol-1-yl-2,3,4,9-tetrahydro-1H-carbazole]	–
0.04 to 0.2	O=C1c2ccccc2C(=O)N1C1CCCc2c1[nH]c1ccc(Br)cc21 (centres unmarked) [Compound 41, 2-(6-Bromo-2,3,4,9-tetrahydro-1H-carbazol-1-yl)-isoindole-1,3-dione]	–
> 1	O=C(Nc1ccccc1)NC1CCCc2c1[nH]c1ccc(Br)cc21 (centres unmarked) [Compound 81, 1-(6-Bromo-2,3,4,9-tetrahydro-1H-carbazol 1-yl)-3-phenyl-urea]	–
> 1	NC(=O)c1ccc2[nH]c3c(c2c1)CCCC3n1cccc1 (centres unmarked) [Compound 119, 8-Pyrrol-1-yl-6,7,8,9-tetrahydro-5H-carbazole-3-carboxylic acid amide]	–
